Test results reported in patent US20240115557A1, “INHIBITORS OF RNA-GUIDED NUCLEASES AND USES THEREOF” (The Brigham and Women's Hospital, Inc., priority 2022, published 2024).

What was measured:
SaCas9 = molecular target: T1, SaCas9 (Staphylococcus aureus, UniProt J7RUA5); assay: Strand displacement assay, SaCas9 primary screen; format: biochemical; conditions: for Auto Zscore Rep 1 / Auto Zscore Rep 2 / Normalized Zscore Rep 1 / Normalized Zscore Rep 2: SaCas9 primary screen; for Auto Zscore Rep 1 / Normalized Zscore Rep 1: replicate 1; for Auto Zscore Rep 2 / Normalized Zscore Rep 2: replicate 2; for Normalized Zscore Rep 1 / Normalized Zscore Rep 2: weaker potential hits; for 3 sigma Hit: flag 1 = hit at 3 sigma; for 5 sigma Hit: flag 1 = hit at 5 sigma
T1 sequence (J7RUA5 1-1053): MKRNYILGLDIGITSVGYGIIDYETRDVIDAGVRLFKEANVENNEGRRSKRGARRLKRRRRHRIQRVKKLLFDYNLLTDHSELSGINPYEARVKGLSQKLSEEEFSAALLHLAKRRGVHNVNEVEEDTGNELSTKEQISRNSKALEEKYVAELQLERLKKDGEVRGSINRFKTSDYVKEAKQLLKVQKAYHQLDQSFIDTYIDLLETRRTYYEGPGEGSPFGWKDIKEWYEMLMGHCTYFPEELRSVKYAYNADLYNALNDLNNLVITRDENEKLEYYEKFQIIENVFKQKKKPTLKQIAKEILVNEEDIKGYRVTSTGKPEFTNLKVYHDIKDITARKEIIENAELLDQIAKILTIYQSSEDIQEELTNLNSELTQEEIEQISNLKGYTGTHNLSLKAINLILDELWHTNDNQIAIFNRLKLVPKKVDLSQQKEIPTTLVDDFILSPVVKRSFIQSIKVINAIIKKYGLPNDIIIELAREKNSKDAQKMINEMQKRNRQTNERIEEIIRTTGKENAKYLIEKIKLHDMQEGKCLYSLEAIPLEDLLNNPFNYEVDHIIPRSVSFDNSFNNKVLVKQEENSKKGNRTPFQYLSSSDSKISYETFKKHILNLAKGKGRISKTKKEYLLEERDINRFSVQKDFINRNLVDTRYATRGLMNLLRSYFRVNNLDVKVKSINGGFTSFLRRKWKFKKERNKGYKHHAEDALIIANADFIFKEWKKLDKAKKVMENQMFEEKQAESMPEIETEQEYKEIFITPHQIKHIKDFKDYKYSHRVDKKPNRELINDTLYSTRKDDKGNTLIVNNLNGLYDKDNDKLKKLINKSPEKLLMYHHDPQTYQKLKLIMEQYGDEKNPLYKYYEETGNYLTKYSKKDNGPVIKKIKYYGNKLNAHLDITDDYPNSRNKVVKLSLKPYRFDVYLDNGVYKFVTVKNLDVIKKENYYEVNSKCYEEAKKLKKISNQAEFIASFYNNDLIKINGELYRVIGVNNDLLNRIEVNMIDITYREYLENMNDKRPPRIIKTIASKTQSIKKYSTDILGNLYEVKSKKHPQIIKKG
How it was run: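 Cas9 RNP (1:1.2 protein:gRNA) pre-formed in 20 mM Tris-HCl pH 7.5, 100 mM KCl, 5 mM MgCl2, used at 10 nM (2× stock) with Alexa-Fluor 647 substrate/quencher at 1 nM/5 nM (2× stock). Reaction ran 2.5 h at 37°C; strand displacement read as fluorescence. Hits called by Z-score: 3–5σ weak, >5σ strong.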

Plasma stability assay = format: in vitro ADME; conditions: 2 μM, 50% mouse plasma in PBS, 2 h
Description: The stability of the compound in mouse plasma was assessed following a reported protocol.^50 BRD7586 (2 μM) was incubated with 50% mouse plasma (K2 EDTA, BioIVT) in PBS for 2 h in duplicate. Propantheline was included as a control.

Row | Compound | Auto Zscore Rep 1 (SaCas9) | Auto Zscore Rep 2 (SaCas9) | Normalized Zscore Rep 1 (SaCas9) | Normalized Zscore Rep 2 (SaCas9) | 3 sigma Hit (SaCas9) | 5 sigma Hit (SaCas9) | Stability in mouse plasma (Plasma stability assay) [%]
1 | Cc1nc2ccccc2n1Cc1nnc2n1N=C(N)CS2 [Compound D727-0339] | −1.123 | −1.939 | 0.1478 | 0.2051 | 1 |  | 
2 | Nc1c(C(=O)N2CCCCC2)sc(=S)n1Cc1ccccc1 [Compound F128-0042] | −0.3436 | 0.3038 | 0.2801 | 0.2612 | 1 | 1 | 
3 | CCN(Cc1ccccc1)c1ccc(NS(=O)(=O)c2ccc(OC)cc2)cc1C(=O)O [Compound F294-0003] | 0.9297 | −1.427 | 0.2547 | 0.2729 | 1 | 1 | 
4 | Cc1ccccc1OCc1nn2c(C(C)C)nnc2s1 [Compound D727-0350] | −0.2032 | 0.9814 | 0.2025 | 0.2065 | 1 | 1 | 
5 | CS(=O)(=O)Nc1cnc(N2CCC(C(N)=O)(N3CCCCC3)CC2)c(C(=O)O)c1 [Compound F293-0183] | 1.533 | −0.4148 | 0.2879 | 0.3283 | 1 | 1 | 
6 | O=C(CCS(=O)(=O)c1ccc(Cl)cc1)Nc1nc(-c2ccncc2)cs1 [BRD7586] |  |  |  |  |  |  | 40
7 | NC(=O)c1sc(=S)n2c1[nH]c(=O)c1ccc(Cl)cc12 [Compound F083-0067] | −0.5214 | 0.84 | 0.2245 | 0.2068 | 1 | 1 | 
8 | c1ccc(Cc2nn3c(-c4cccnc4)nnc3s2)cc1 [Compound D727-0066] | 0.2456 | 1.309 | 0.1917 | 0.2236 | 1 | 1 | 
9 | CN(C)S(=O)(=O)Nc1cnc(N2CCC(CCN3CCCCC3)CC2)c(C(=O)O)c1 [Compound F293-0962] | −1.575 | −1.36 | 0.2533 | 0.277 | 1 | 1 | 
10 | CN(C)S(=O)(=O)Nc1ccc(N2CCCC(CN3CCCC3)C2)c(C(=O)O)c1 (stereo not drawn) [Compound F294-0983] | −0.3877 | −0.5875 | 0.2894 | 0.2577 | 1 | 1 | 
11 | Cc1ccccc1OCc1nn2c(C(C)(C)C)nnc2s1 [Compound D727-0351] | −0.02144 | −0.3042 | 0.2896 | 0.3227 | 1 | 1 | 
12 | O=C(O)c1cc(NS(=O)(=O)c2cc(F)ccc2F)cnc1N1CCC(N2CCCCC2)CC1 [Compound F293-0616] | −0.1879 | −0.1846 | 0.1887 | 0.1788 | 1 |  | 
13 | NC(=O)c1c(NC(=O)COCc2cc(-c3ccc4c(c3)OCO4)on2)sc2c1CCCC2 [Compound E613-0091] | −0.4678 | −1.998 | 0.1515 | 0.3604 | 1 |  | 
14 | Fc1ccc(OCc2nn3c(-c4ccccn4)nnc3s2)cc1 [Compound D727-0525] | 0.9393 | 1.066 | 0.3566 | 0.3426 | 1 | 1 | 
15 | NS(=O)(=O)c1ccc(CCNC(=O)C2=Cc3sc4c(c3CS2)CCCC4)cc1 [Compound E722-2588] | 0.2247 | −0.3407 | 0.2746 | 0.2871 | 1 | 1 | 
16 | CN(C)S(=O)(=O)Nc1ccc(N2CCC(CCN3CCOCC3)CC2)c(C(=O)O)c1 [Compound F294-0900] | −2.121 | 0.2518 | 0.2307 | 0.229 | 1 | 1 | 
17 | O=C(O)c1ccc(N2CCN(c3ccccn3)CC2)c(NC(=O)c2ccc(Br)cc2)c1 [Compound F086-0619] | 1.213 | 0.1224 | 0.2335 | 0.1451 | 1 | 1 | 
18 | CC(C)NC(=O)CN1CCN(c2ccc(C(=O)O)cc2NC(=O)c2ccccc2Cl)CC1 [Compound F086-0028] | −0.07719 | 0.5847 | 0.2467 | 0.2295 | 1 | 1 | 
19 | COCCCNC(=O)CN1CCN(c2ccc(C(=O)O)cc2NC(=O)c2ccccc2Cl)CC1 [Compound F086-0033] | −0.0657 | −0.1907 | 0.1937 | 0.2246 | 1 | 1 | 
20 | CN(C)S(=O)(=O)Nc1ccc(N2CCC(C(N)=O)(N3CCCCC3)CC2)c(C(=O)O)c1 [Compound F294-0183] | −1.66 | −0.5827 | 0.1624 | 0.2442 | 1 |  | 
21 | CCCN1CCN(c2ccc(C(=O)O)cc2NC(=O)c2ccccc2Cl)CC1 [Compound F086-0004] | −1.483 | 1.076 | 0.2725 | 0.2108 | 1 | 1 | 
22 | CS(=O)(=O)Nc1cnc(N2CCC(CCN3CCOCC3)CC2)c(C(=O)O)c1 [Compound F293-0898] | 0.3628 | 0.2374 | 0.3858 | 0.277 | 1 | 1 | 
23 | Brc1ccc(OCc2nn3c(-c4ccccn4)nnc3s2)cc1 [Compound D727-0522] | 1.021 | 0.5297 | 0.3471 | 0.3776 | 1 | 1 | 
24 | Nc1c(C(=O)NCC2CCCO2)sc(=S)n1-c1ccc(Cl)cc1 (stereo not drawn) [Compound F128-0076] | −0.6285 | −1.451 | 0.3168 | 0.2064 | 1 | 1 | 
25 | Nc1c(C(=O)N2CCCC2)sc(=S)n1Cc1ccccc1 [Compound F128-0041] | 1.188 | −1.115 | 0.3576 | 0.3845 | 1 | 1 | 
